Laboratory results from ChEMBL document CHEMBL3046332, “Ultrastructural effects of pyridalyl, an insecticidal agent, on epidermal cells of Spodoptera litura larvae and cultured insect cells Sf9” (J Pestic Sci, 2006).
Activity calls are given as the source filed them.

How the values were obtained:
Spodoptera litura [1] = assay: Insecticidal activity against Spodoptera litura larvae assessed as diluted Golgi apparatus in epidermal cell at 100 ng measured after 6 hr by ultrastructural analysis/electron microscopy; type: functional, organism-based
Spodoptera litura [2] = assay: Insecticidal activity against Spodoptera litura larvae assessed as condensed nuclei in epidermal cell at 100 ng measured after 4 hr by ultrastructural analysis/electron microscopy; type: functional, organism-based
Spodoptera litura [3] = assay: Insecticidal activity against Spodoptera litura larvae assessed as diluted rough endoplasmic reticula in epidermal cell at 100 ng measured after 6 hr by ultrastructural analysis/electron microscopy; type: functional, organism-based
Spodoptera litura [4] = assay: Insecticidal activity against Spodoptera litura larvae assessed as symptoms at 100 ng measured after 2 hr; type: functional, organism-based
Sf9 [5] = assay: Ultrastructural effect on Spodoptera frugiperda (fall armyworm) sf9 cells assessed as low density matrix mitochondria at 1 uM measured 4 to 6 hr by electron microscopy; type: functional, cell-based
Spodoptera litura [6] = assay: Insecticidal activity against Spodoptera litura larvae assessed as shorten microvillous projections epidermal cell at 100 ng measured after 6 hr by ultrastructural analysis/electron; type: functional, organism-based
Spodoptera litura [7] = assay: Insecticidal activity against Spodoptera litura larvae assessed as paralysis at 100 ng measured after 6 hr; type: functional, organism-based
Spodoptera litura [8] = assay: Insecticidal activity against Spodoptera litura larvae assessed as epidermal cell nuclear change at 100 ng measured after 2 hr by ultrastructural analysis/electron microscopy; type: functional, organism-based
Sf9 [9] = assay: Ultrastructural effect on Spodoptera frugiperda (fall armyworm) sf9 cells assessed as enlarged mitochondria at 1 uM measured 4 to 6 hr by electron microscopy; type: functional, cell-based
Spodoptera litura [10] = assay: Insecticidal activity against Spodoptera litura larvae assessed as decrease in mobility at 100 ng measured after 4 hr; type: functional, organism-based
Spodoptera litura [11] = assay: Insecticidal activity against Spodoptera litura larvae assessed intracytoplasmic ultrastructures of the epidermal cell at 100 ng measured after 2 hr by ultrastructural analysis/electron microscopy; type: functional, organism-based
Sf9 [12] = assay: Ultrastructural effect on Spodoptera frugiperda (fall armyworm) sf9 cells assessed as decrease in mitochondrial number at 1 uM measured 4 to 6 hr by electron microscopy; type: functional, cell-based
Spodoptera litura [13] = assay: Insecticidal activity against Spodoptera litura larvae assessed as dorsal aorta at 100 ng measured after 6 hr by ultrastructural analysis/electron microscopy; type: functional, organism-based
Sf9 [14] = assay: Ultrastructural effect on Spodoptera frugiperda (fall armyworm) sf9 cells assessed as swollen mitochondria at 1 uM measured for 8 hr by electron microscopy; type: functional, cell-based
Spodoptera litura [15] = assay: Insecticidal activity against Spodoptera litura larvae assessed as condensed and shrunken epidermal cell at 100 ng measured after 6 hr by ultrastructural analysis/electron microscopy; type: functional, organism-based
Sf9 [16] = assay: Ultrastructural effect on Spodoptera frugiperda (fall armyworm) sf9 cells assessed as dissociation of polysomes and nuclear swelling at 1 uM measured 4 to 6 hr by electron microscopy; type: functional, cell-based
Spodoptera litura [17] = assay: Insecticidal activity against Spodoptera litura larvae assessed as muscular and fat tissues underlying the epidermis at 100 ng measured after 6 hr by ultrastructural analysis/electron microscopy; type: functional, organism-based; settings: Adipose tissue
Spodoptera litura [18] = assay: Insecticidal activity against Spodoptera litura larvae assessed as swollen mitochondria in epidermal cell at 100 ng measured after 6 hr by ultrastructural analysis/electron microscopy; type: functional, organism-based
Spodoptera litura [19] = assay: Insecticidal activity against Spodoptera litura larvae assessed as enlarged mitochondria in epidermal cell at 100 ng measured after 4 hr by ultrastructural analysis/electron microscopy; type: functional, organism-based
Sf9 [20] = assay: Ultrastructural effect on Spodoptera frugiperda (fall armyworm) sf9 cells assessed as mitochondria with disarranged cristae at 1 uM measured 8 hr by electron microscopy; type: functional, cell-based
Spodoptera litura [21] = assay: Insecticidal activity against Spodoptera litura larvae assessed as midgut and ganglia at 100 ng measured after 6 hr by ultrastructural analysis/electron microscopy; type: functional, organism-based

Measured: Activity

FC(F)(F)c1ccc(OCCCOc2c(Cl)cc(OCC=C(Cl)Cl)cc2Cl)nc1
inactive: Spodoptera litura [4] | Spodoptera litura [8] | Spodoptera litura [11] | Spodoptera litura [13] | Spodoptera litura [17] | Spodoptera litura [21]
active: all other assays above
